% of control data for 2 compounds are collected here from ChEMBL document CHEMBL5465560, “Selectivity Literature for EUbOPEN Chemogenomic Library” (2024).

Experiment [1] has as its target T1, Calcium/calmodulin-dependent protein kinase type IV (Homo sapiens) (UniProt Q16566).
T1 sequence (whole entry): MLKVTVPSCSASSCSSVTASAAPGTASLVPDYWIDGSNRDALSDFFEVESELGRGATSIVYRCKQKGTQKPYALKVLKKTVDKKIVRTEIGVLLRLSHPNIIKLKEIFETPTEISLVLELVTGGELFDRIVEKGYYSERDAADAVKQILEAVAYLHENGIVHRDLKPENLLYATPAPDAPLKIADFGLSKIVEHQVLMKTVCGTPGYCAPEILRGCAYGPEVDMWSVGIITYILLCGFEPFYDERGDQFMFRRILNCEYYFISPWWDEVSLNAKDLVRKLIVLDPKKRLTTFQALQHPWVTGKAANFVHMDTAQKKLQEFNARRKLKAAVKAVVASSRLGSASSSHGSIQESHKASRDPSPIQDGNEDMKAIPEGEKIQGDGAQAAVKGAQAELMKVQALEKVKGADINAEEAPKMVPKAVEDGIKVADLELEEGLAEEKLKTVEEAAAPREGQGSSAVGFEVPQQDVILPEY
The experiment is described as follows: Selectivity interaction (KinomeScan (DiscoverX)) EUB0001049a CAMK4. The following applies: at 1 µM.

Experiment [2] deals with T2, Receptor-type tyrosine-protein kinase FLT3 (Homo sapiens), P36888 [K663Q].
T2 sequence (whole entry): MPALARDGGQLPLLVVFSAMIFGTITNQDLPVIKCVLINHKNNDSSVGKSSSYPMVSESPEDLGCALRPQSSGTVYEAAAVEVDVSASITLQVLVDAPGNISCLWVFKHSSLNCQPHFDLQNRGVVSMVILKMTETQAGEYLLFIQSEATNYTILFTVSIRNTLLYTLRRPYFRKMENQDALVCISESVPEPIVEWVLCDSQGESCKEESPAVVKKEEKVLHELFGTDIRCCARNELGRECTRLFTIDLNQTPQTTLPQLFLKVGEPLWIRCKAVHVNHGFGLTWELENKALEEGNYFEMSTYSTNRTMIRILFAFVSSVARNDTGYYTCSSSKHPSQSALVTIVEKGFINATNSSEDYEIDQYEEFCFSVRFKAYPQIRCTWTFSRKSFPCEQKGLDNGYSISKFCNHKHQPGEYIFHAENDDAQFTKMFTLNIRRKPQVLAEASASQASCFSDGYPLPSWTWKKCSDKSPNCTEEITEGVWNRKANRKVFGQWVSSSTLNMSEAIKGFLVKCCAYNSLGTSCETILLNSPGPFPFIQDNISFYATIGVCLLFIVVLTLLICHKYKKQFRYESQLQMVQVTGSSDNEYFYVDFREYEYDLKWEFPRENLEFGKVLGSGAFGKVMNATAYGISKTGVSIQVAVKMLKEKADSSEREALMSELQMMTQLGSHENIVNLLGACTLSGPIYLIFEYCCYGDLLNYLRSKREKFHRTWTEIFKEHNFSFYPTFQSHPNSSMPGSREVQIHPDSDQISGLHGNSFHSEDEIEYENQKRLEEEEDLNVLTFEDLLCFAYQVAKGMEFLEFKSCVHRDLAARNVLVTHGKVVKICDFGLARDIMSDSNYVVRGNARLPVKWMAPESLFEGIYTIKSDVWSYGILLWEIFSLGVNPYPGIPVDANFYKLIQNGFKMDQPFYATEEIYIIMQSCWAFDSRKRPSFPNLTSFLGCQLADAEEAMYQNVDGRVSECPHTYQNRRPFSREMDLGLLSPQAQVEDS
Kind of experiment: (§1) Selectivity interaction (KinomeScan (DiscoverX)) EUB0000618a FLT3. The settings on record: at 10 µM.

Experiment [3] concerns the target Receptor-type tyrosine-protein kinase FLT3 (Homo sapiens) (UniProt P36888). The experiment is described as §1. The following applies: at 10 µM.
Experiment [4] concerns T3, Receptor-type tyrosine-protein kinase FLT3 (Homo sapiens), P36888 [D835H].
T3 sequence (whole entry): T2 sequence (whole entry) with Q663K, D835H
The experiment is described as §1. The following applies: at 10 µM.

Residue numbers refer to the chain shown, from its start.

Regarding `COc1cc(Nc2nc(C)cc(-c3cnn4nc(OC)ccc34)n2)cc(C(F)(F)F)c1`, in experiment [1], the % of control is 100%.

For `O[C@H]1CC[C@H](Nc2ncc3nc(Nc4c(F)cc(F)cc4F)n([C@H]4CCOC4)c3n2)CC1`, the % of control amounted to 100% in experiment [2], 97% in experiment [3] and 67% in experiment [4].
